Assay [1] has as its system human non-small cell lung cancer cells H460. Put plainly: XTT cell proliferation assay, H460. The format is cell-based. The conditions noted are these: 5 days incubation, read-out: Antiproliferative activity, NSCLC H460. Here is the method: (§1) Exemplary compounds 1-8 were tested for anti-cancer activity in vitro using human renal cancer cells (ACHN and CAK-1), human pancreatic cells (BXPC3 and SU-86-86), human prostate cancer cell (DU14), human colon carcinoma cells (HT-29 and KM-12), leukemia cells (HL60), brain cancer/tumour cells (SK-A-AS, U87-MG), and human non-small cell lung cancer cells (H460). Compounds 1-8 are the specific embodiments of Formula (I) and Formula (IV) as described above in this application.
(§2) The cells were maintained as a monolayer in a growth medium; McCoy's 5A modified medium (Sigma, St. Louis, Mo.), supplemented with 2 mM L-glutamine (Gibco, Grand Island, N.Y.), 10% fetal bovine serum (FBS) (Multicell, WISENT Inc. St-Bruno, QC), antibiotic-antimycotic (Multicell), at 37° C. in a 5% CO2-humidified incubator. Cells were transferred onto 150 mm tissue culture plates and grown until sub-confluency (70-80%) prior to their use. The in vitro antiproliferative activity of compounds was evaluated by incubating the cells with varying concentrations of exemplary compounds as shown in Table 1 for 5 days. The efficacy of these compounds in this cell proliferation assay was measured based in the ability of live cells to reduce the tetrazolium salt XTT to orange colored compounds of formazan (XTT cell proliferation kit IT, Roche Applied Science, Montreal, QC).
For orientation: Tetrazolium dyes change colour on reduction, which living cells bring about.

Another assay deals with P388D1 (mouse, lymphoma). Put plainly: Cell growth inhibition assay, P388D1. The format is cell-based. Conditions: five days of incubation, XTT; read-out: IC50 P388D1 (ms). The procedure: (§3) In this study, compounds 1-8 were screened in vitro against a panel of four mouse lymphoma cell lines and two human lymphoma cell line for cell growth inhibition activity. Following treatment, half maximal inhibitory concentrations (IC50) were determined with the objective of selecting the most efficacious compounds for evaluation of in vitro absorption, distribution, metabolism, and excretion (ADME) screening.
(§4) Similarly, human Burkitt's lymphoma Ramos cells (ATCC CRL-1596) were grown in suspension in Roswell Park Memorial Institute (RPMI) 1640 medium supplemented with 10% fetal bovine serum (FBS), 10 mM HEPES KOH pH 7.4, and 2 mM sodium pyruvate. Mouse P388D1 (ATCC CCL-46) and WR19L (ATCC TIB-52) cells were grown in suspension in Dulbecco's Modified Eagle Medium (DMEM) with 10% fetal bovine serum (FBS), 10 mM HEPES, and 2 mM sodium pyruvate. Mouse WEHI231 (ATCC CRL-1702) and EL4 (ATCC TIB-39) cells were grown in suspension in DMEM with 10% fetal bovine serum (FBS), 10 mM HEPES KOH pH 7.4, 2 mM sodium pyruvate, and 0.05 mM β-mercaptoethanol. All cells were maintained at 37° C. in an atmosphere of 5% CO2 in air. Logarithmically growing cells were routinely sub-cultured twice weekly. Briefly, cells were collected by centrifugation, resuspended in pre-warmed media, and diluted 1:10 into a 75 cm^2 flask.
(§5) Cells were subcultured and 4×10^3 cells (in 50 μL) were transferred to each well in a Falcon 96-well tissue culture plate. Exemplary compounds were dissolved in pure dimethyl sulphoxide (DMSO) at a concentration of 10 mM. From this 10 mM stock solution, 12 successive serial dilutions were made in DMSO (2.5 fold dilutions), ranging from 0.52 μM to 10 mM. Using these stock dilutions, 5 μL of each were added to 500 μL of media, and 50 μL of this was added to the cells. The final concentrations being tested ranged from 0.0026 μM to 50 μM. Each concentration was tested in triplicate, and DMSO and untreated cells were also included as controls. After five days of incubation with the compounds, cell viability was determined using the XTT cell proliferation kit (Roche, Cat. No. 11 465 015 001). Following the XTT protocol, 4.5-24 hours after addition of the reagent, the plates were read in a μQuant 96-well plate spectrophotometer (Biotek Instruments Inc.) and the results analyzed to determine the IC50.

The subject of assay [2] is human prostate cancer cell DU14. Put plainly: XTT cell proliferation assay, DU14. The format is cell-based. The conditions noted are these: 5 days incubation, read-out: Antiproliferative activity, Pros. DU14. Here is the method: as §1, §2
For assay [3], the system named is panel of human and mouse lymphoma cell lines. Put plainly: Cell growth inhibition, whole lymphoma panel (mean IC50, mean rank). Conditions: mean over six lymphoma cell lines. The format is cell-based. The procedure:
as §3, §5
In vitro potency was assessed using eight exemplary compounds against a panel of human and mouse lymphoma cell lines (Table 4). […] To compare the efficacy of the compounds in cell growth inhibition across the entire panel of cell lines screened, the eight compounds were ranked according to efficacy against each cell line with a numerical value of one indicating most efficacious (lowest IC50 value) and eight being the least efficacious (highest IC50 value).

For assay [4], the system named is pancreatic cancer (BxPC-3). Nature of the assay: Pancreatic cancer (BxPC-3) xenograft model. The format is in vivo, CD-1 female nude mice. Conditions: pancreatic carcinoma BxPC-3; vs vehicle-treated control; FIG. 5. The procedure: (§6) The ability of compound 1 to inhibit colon tumour growth in vivo was tested as follows. CD-1 female nude mice (7 mice per treatment group, 6-7 weeks) were injected […] with human colon adenocarcinoma cells HT-29 cells (3×10^6 cells in 0.1 ml PBS). Treatment of the mice with vehicle or 50 mg/kg/d of […] was initiated 5 days post-inoculation (size of tumours=20-40 mm^3) for 7-day cycles of five days followed by a 2 day break for 5 weeks. The size of the tumours was measured over the course of the experiment using calipers, and the weight of the tumours was measured after the animals were sacrificed.
(§7) The ability of compound 1 to inhibit renal cell carcinoma growth (see FIG. 4), to inhibit pancreatic carcinoma growth (FIG. 5), to inhibit large-cell lung carcinoma cell growth (FIG. 6), and to inhibit Glioblastoma cell growth (FIG. 7) was also tested following the general procedure as discussed above.

For assay [5], the system named is renal cell carcinoma (ACHN). Put plainly: Renal cell carcinoma (ACHN) xenograft model. The format is in vivo, CD-1 female nude mice. The conditions noted are these: vs vehicle-treated control, FIG. 4. The procedure:
as §6, §7

In another assay the test system is WR19L (mouse, lymphoma). Put plainly: Cell growth inhibition assay, WR19L. The format is cell-based. The conditions noted are these: five days of incubation, XTT; read-out: IC50 WR19L (ms). Here is the method: as §3, §4, §5
For assay [6], the system named is Human Burkitt's lymphoma Raji cells. Nature of the assay: Cell growth inhibition assay, Raji. In kind it is cell-based. Conditions: five days of incubation, XTT; read-out: IC50 Raji (hs). The procedure: as §3
Human Burkitt's lymphoma Raji cells (ATCC CCL-86) were grown in suspension in Roswell Park Memorial Institute (RPMI) 1640 medium supplemented with 10% fetal bovine serum (FBS), 10 mM HEPES KOH pH 7.4, and 2 mM sodium pyruvate at 37° C. in an atmosphere of 5% CO2 in air. Logarithmically growing cells were routinely sub-cultured twice weekly. Briefly, cells were collected by centrifugation, resuspended in pre-warmed media, and diluted 1:10 into a 75 cm^2 flask.
as §5

Another assay has as its system Glioblastoma (U87-MG). Nature of the assay: Glioblastoma (U87-MG) xenograft model. The format is in vivo, CD-1 female nude mice. Conditions: vs vehicle-treated control, FIG. 7. The procedure: as §6, §7
The test system of assay [7] is brain cancer/tumour cells SK-N-AS. Nature of the assay: XTT cell proliferation assay, SK-N-AS. In kind it is cell-based, human. The conditions noted are these: 5 days incubation, read-out: Antiproliferative activity, Brain SK-N-AS. Here is the method:
as §1, §2

Each structure is given as a SMILES string.

For the compound `FC1(F)Oc2ccc(-c3nc4c5cccnc5c5ncccc5c4[nH]3)cc2O1` [Compound 1], the IC50 stood at 160 nM in assay [1]; 370 nM in the assay on P388D1 (mouse, lymphoma); 170 nM in [2]; 209 nM in assay [3]; 82 nM in the assay on WR19L (mouse, lymphoma); 153 nM in [6]. For the same compound, in assay [7], the IC50 came to 210 nM. Also, the “inhibition of tumour growth, as measured by tumour size” value (in assay [4]; in assay [5]; in the assay with Glioblastoma (U87-MG)) was “able to inhibit tumour growth” in each case.

For the origin of these results see patent US9309247B2, “2-substituted imidazo[4,5-D]phenanthroline derivatives and their use in the treatment of cancer” (Aptose Biosciences Inc., priority 2013, dated 2016).
